The source of these data is the OligoGym collection.

“And” between values parts separate entries of the source, which are not always exact repeats. Equal values may be shown once. After the bases stand the sugars from the 5' end (letter, count) and the backbone: PS all phosphorothioate, else s phosphorothioate and o phosphodiester by linkage. HELM strings list units from the 5' end as sugar, base in round brackets, then linkage (d deoxyribose, r ribose, m 2'-O-methyl, p phosphodiester). Methylation of C is not given here. [moe] = 2'-O-(2-methoxyethyl) (MOE); [cEt] = constrained ethyl (cEt); [sp] = phosphorothioate linkage; e = 2'-O-(2-methoxyethyl) (MOE); k = constrained ethyl (cEt); d = 2'-deoxy (DNA)

For one data set, the target named is HBV. The conditions noted are these: ASO.
For the next data set, the target named is IRF5. To be noted: ASO.

On to “RNA1{[moe](A)[sp].[cEt](C)[sp].[cEt](C)[sp].d(A)[sp].d(C)[sp].d(A)[sp].d(T)[sp].d(C)[sp].d(A)[sp].d(T)[sp].d(C)[sp].d(C)[sp].d(A)[sp].[cEt](T)[sp].[cEt](A)[sp].[moe](T)}$$$$V2.0”, for which, in the data set with HBV (HepG2, 0.07 µM), the target mRNA inhibition was 35% and 54%. Still for that read-out and setting: then “RNA1{[moe](A)[sp].[moe](G)[sp].[moe](T)[sp].[moe](T)[sp].[moe](C)[sp].d(C)[sp].d(G)[sp].d(C)[sp].d(A)[sp].d(G)[sp].d(T)[sp].d(A)[sp].d(T)[sp].d(G)[sp].[moe](G)[sp].[moe](A)[sp].[moe](T)}$$$$V2.0”, with 56% and 49%; and “RNA1{[moe](G)[sp].[moe](T)[sp].[moe](G)[sp].[moe](C)[sp].[moe](A)[sp].d(G)[sp].d(A)[sp].d(G)[sp].d(G)[sp].d(T)[sp].d(G)[sp].d(A)[sp].d(A)[sp].d(G)[sp].[moe](C)[sp].[moe](G)}$$$$V2.0”, with 57% and 51%. For the substance “RNA1{[moe](A)[sp].[moe](C)[sp].[moe](C)[sp].[moe](A)[sp].d(C)[sp].d(T)[sp].d(G)[sp].d(A)[sp].d(A)[sp].d(C)[sp].d(A)[sp].d(A)[sp].d(A)[sp].[moe](T)[sp].[moe](G)[sp].[moe](G)}$$$$V2.0”, the target mRNA inhibition in the data set with HBV (HepG2, 0.07 µM) is 54% and 65%. Turning to “RNA1{[moe](G)[sp].[cEt](G)[sp].d(A)[sp].d(G)[sp].d(T)[sp].d(T)[sp].d(C)[sp].d(C)[sp].d(G)[sp].d(C)[sp].d(A)[sp].d(G)[sp].[cEt](T)[sp].[moe](A)[sp].[cEt](T)[sp].[moe](G)}$$$$V2.0”, the target mRNA inhibition with HBV (HepG2, 0.0092593 µM) was 12%; with HBV (HepG2, 0.0277778 µM) it was 49%; in the data set with HBV (HepG2, 0.07 µM), 78% and 87%; with HBV (HepG2, 0.0833333 µM), 79%; with HBV (HepG2, 0.25 µM) it was 89%. “RNA1{[moe](G)[sp].[moe](T)[sp].[moe](G)[sp].d(A)[sp].d(A)[sp].d(G)[sp].d(C)[sp].d(G)[sp].d(A)[sp].d(A)[sp].d(G)[sp].d(T)[sp].[moe](G)[sp].[moe](C)[sp].[moe](A)[sp].[moe](C)[sp].[moe](A)}$$$$V2.0”: the target mRNA inhibition in the data set with HBV (HepG2, 0.07 µM) was 71% and 63%. Same read-out and setting: the result for “RNA1{[moe](A)[sp].[moe](C)[sp].[moe](G)[sp].[moe](T)[sp].[moe](G)[sp].d(C)[sp].d(A)[sp].d(G)[sp].d(A)[sp].d(G)[sp].d(G)[sp].d(T)[sp].d(G)[sp].d(A)[sp].[moe](A)[sp].[moe](G)}$$$$V2.0” reads 6% and 13%; that for “RNA1{[moe](T)[sp].[cEt](T)[sp].[cEt](A)[sp].d(T)[sp].d(G)[sp].d(C)[sp].d(C)[sp].d(T)[sp].d(A)[sp].d(C)[sp].d(A)[sp].d(G)[sp].d(C)[sp].[cEt](C)[sp].[cEt](T)[sp].[moe](C)}$$$$V2.0”, 48% and 23%. As to “RNA1{[moe](C)[sp].[moe](A)[sp].d(A)[sp].d(T)[sp].d(T)[sp].d(T)[sp].d(A)[sp].d(T)[sp].d(G)[sp].d(C)[sp].d(C)[sp].[moe](T)[sp].[moe](A)[sp].[moe](C)[sp].[moe](A)[sp].[moe](G)[sp].[moe](C)}$$$$V2.0”, the target mRNA inhibition in the data set with HBV (HepG2, 0.07 µM) is 53% and 46%. The same measure, in the same setting: then “RNA1{[moe](G)[sp].[moe](A)[sp].[moe](A)[sp].d(G)[sp].d(T)[sp].d(C)[sp].d(C)[sp].d(A)[sp].d(C)[sp].d(C)[sp].d(A)[sp].d(C)[sp].d(G)[sp].[cEt](A)[sp].[cEt](G)[sp].[cEt](T)}$$$$V2.0”, with 34% and 33%. The same measure, in the same setting: the result for “RNA1{[moe](C)[sp].[moe](A)[sp].[moe](A)[sp].[moe](T)[sp].[moe](T)[sp].d(T)[sp].d(A)[sp].d(T)[sp].d(G)[sp].d(C)[sp].d(C)[sp].d(T)[sp].d(A)[sp].d(C)[sp].[moe](A)[sp].[moe](G)}$$$$V2.0” reads 24% and 11%. In the case of “RNA1{[moe](A)[sp].[moe](A)[sp].[moe](G)[sp].[moe](C)[sp].[cEt](G)[sp].[cEt](A)[sp].d(A)[sp].d(G)[sp].d(T)[sp].d(G)[sp].d(C)[sp].d(A)[sp].d(C)[sp].[moe](A)[sp].[moe](C)[sp].[moe](G)[sp].[moe](G)}$$$$V2.0”, the target mRNA inhibition with HBV (HepG2, 0.009375 µM) turned out to be 26%; in the data set with HBV (HepG2, 0.01875 µM) it was 29%; with HBV (HepG2, 0.0375 µM) it was 30%; in the data set with HBV (HepG2, 0.075 µM), 64%; in the data set with HBV (HepG2, 0.15 µM), 80%; with HBV (HepG2, 0.3 µM) it was 91%. Regarding “RNA1{[moe](T)[sp].[cEt](G)[sp].[cEt](A)[sp].d(G)[sp].d(A)[sp].d(G)[sp].d(A)[sp].d(A)[sp].d(G)[sp].d(T)[sp].d(C)[sp].d(C)[sp].d(A)[sp].[cEt](C)[sp].[cEt](C)[sp].[moe](A)}$$$$V2.0”, in the data set with HBV (HepG2, 0.07 µM), the target mRNA inhibition is 53% and 49%. The same measure, in the same setting: the result for “RNA1{[moe](A)[sp].[moe](G)[sp].[moe](A)[sp].d(G)[sp].d(G)[sp].d(T)[sp].d(G)[sp].d(A)[sp].d(A)[sp].d(G)[sp].d(C)[sp].d(G)[sp].[moe](A)[sp].[moe](A)[sp].[moe](G)[sp].[moe](T)[sp].[moe](G)}$$$$V2.0” reads 70% and 52%. “RNA1{[cEt](A)[sp].[moe](G)[sp].[cEt](C)[sp].d(G)[sp].d(A)[sp].d(A)[sp].d(G)[sp].d(T)[sp].d(G)[sp].d(C)[sp].d(A)[sp].[moe](C)[sp].[moe](A)[sp].[moe](C)[sp].[moe](G)[sp].[moe](G)}$$$$V2.0”: the target mRNA inhibition with HBV (HepG2, 0.009375 µM) was determined as 37%; with HBV (HepG2, 0.01875 µM) it was 39%; in the data set with HBV (HepG2, 0.0375 µM) it was 59%; with HBV (HepG2, 0.075 µM), 72%; with HBV (HepG2, 0.15 µM) it was 86%; with HBV (HepG2, 0.3 µM) it was 90%. In the case of “RNA1{[moe](A)[sp].[moe](A)[sp].[moe](T)[sp].d(T)[sp].d(T)[sp].d(A)[sp].d(T)[sp].d(G)[sp].d(C)[sp].d(C)[sp].d(T)[sp].d(A)[sp].[moe](C)[sp].[moe](A)[sp].[moe](G)[sp].[moe](C)}$$$$V2.0”, the target mRNA inhibition in the data set with HBV (HepG2, 0.07 µM) was 52% and 49%.

As for “RNA1{[moe](G)[sp].[cEt](A)[sp].[cEt](A)[sp].d(G)[sp].d(T)[sp].d(C)[sp].d(C)[sp].d(A)[sp].d(C)[sp].d(C)[sp].d(A)[sp].d(C)[sp].d(G)[sp].[cEt](A)[sp].[cEt](G)[sp].[moe](T)}$$$$V2.0”, the target mRNA inhibition in the data set with HBV (HepG2, 0.07 µM) was 59% and 53%. The same measure, in the same setting: then “RNA1{[moe](A)[sp].[cEt](A)[sp].[cEt](G)[sp].d(G)[sp].d(C)[sp].d(A)[sp].d(C)[sp].d(A)[sp].d(G)[sp].d(C)[sp].d(T)[sp].d(T)[sp].d(G)[sp].[cEt](G)[sp].[cEt](A)[sp].[moe](G)}$$$$V2.0”, with 32% and 15%; and “RNA1{[moe](G)[sp].[moe](A)[sp].[moe](T)[sp].d(G)[sp].d(A)[sp].d(G)[sp].d(G)[sp].d(C)[sp].d(A)[sp].d(T)[sp].d(A)[sp].d(G)[sp].[moe](C)[sp].[moe](A)[sp].[moe](G)[sp].[moe](C)[sp].[moe](A)}$$$$V2.0”, with 51%.

For the substance “RNA1{[moe](A)[sp].[moe](C)[sp].[moe](T)[sp].[moe](A)[sp].[moe](G)[sp].d(T)[sp].d(A)[sp].d(A)[sp].d(A)[sp].d(C)[sp].d(T)[sp].d(G)[sp].d(A)[sp].d(G)[sp].[moe](C)[sp].[moe](C)}$$$$V2.0”, the target mRNA inhibition with HBV (HepG2, 0.07 µM) is 64% and 66%. Still for that read-out and setting: then “RNA1{[moe](C)[sp].[moe](T)[sp].[moe](G)[sp].[moe](G)[sp].d(A)[sp].d(G)[sp].d(C)[sp].d(C)[sp].d(A)[sp].d(C)[sp].d(C)[sp].d(A)[sp].d(G)[sp].[moe](C)[sp].[moe](A)[sp].[moe](G)}$$$$V2.0”, with 57% and 60%.

Take “RNA1{[moe](A)[sp].[moe](A)[sp].[moe](C)[sp].d(C)[sp].d(A)[sp].d(C)[sp].d(T)[sp].d(G)[sp].d(A)[sp].d(A)[sp].d(C)[sp].d(A)[sp].[moe](A)[sp].[moe](A)[sp].[moe](T)[sp].[moe](G)}$$$$V2.0”: the target mRNA inhibition with HBV (HepG2, 0.07 µM) was 20% and 37%. The same measure, in the same setting: then “RNA1{[moe](C)[sp].[moe](A)[sp].[moe](A)[sp].d(T)[sp].d(T)[sp].d(T)[sp].d(A)[sp].d(T)[sp].d(G)[sp].d(C)[sp].d(C)[sp].d(T)[sp].[moe](A)[sp].[moe](C)[sp].[moe](A)[sp].[moe](G)}$$$$V2.0”, with 17% and 22%. The same measure, in the same setting: then “RNA1{[moe](G)[sp].[moe](A)[sp].d(A)[sp].d(C)[sp].d(C)[sp].d(A)[sp].d(C)[sp].d(T)[sp].d(G)[sp].d(A)[sp].d(A)[sp].[moe](C)[sp].[moe](A)[sp].[moe](A)[sp].[moe](A)[sp].[moe](T)}$$$$V2.0”, with 37% and 25%; and “RNA1{[moe](G)[sp].[moe](A)[sp].[moe](A)[sp].[moe](G)[sp].d(C)[sp].d(G)[sp].d(A)[sp].d(A)[sp].d(G)[sp].d(T)[sp].d(G)[sp].d(C)[sp].d(A)[sp].[moe](C)[sp].[moe](A)[sp].[moe](C)[sp].[moe](G)}$$$$V2.0”, with 65% and 57%; and “RNA1{[moe](T)[sp].[moe](T)[sp].d(C)[sp].d(C)[sp].d(G)[sp].d(C)[sp].d(A)[sp].d(G)[sp].d(T)[sp].d(A)[sp].d(T)[sp].[moe](G)[sp].[moe](G)[sp].[moe](A)[sp].[moe](T)[sp].[moe](C)[sp].[moe](G)}$$$$V2.0”, with 67% and 72%. The same measure, in the same setting: the result for “RNA1{[moe](A)[sp].[moe](A)[sp].[moe](C)[sp].d(T)[sp].d(G)[sp].d(G)[sp].d(A)[sp].d(G)[sp].d(C)[sp].d(C)[sp].d(A)[sp].d(C)[sp].[moe](C)[sp].[moe](A)[sp].[moe](G)[sp].[moe](C)}$$$$V2.0” reads 59% and 56%. “TATTTCTGCTCCAGGT (sugars kkddddddddddkeke, PS)”: the target mRNA inhibition is 40% with IRF5 (KARPAS-229, 0.44444 µM); 53% in the data set with IRF5 (KARPAS-229, 1.33333 µM); 49% and 71% with IRF5 (KARPAS-229, 4 µM); 79% with IRF5 (KARPAS-229, 12 µM). In the data set with IRF5 (KARPAS-229, 4 µM), “TTATCTCCGTCCTGGC (sugars kkddddddddkekekk, PS)” yielded a target mRNA inhibition of 0%.

For the substance “GTCTTGACCTCCCGCT (sugars kkdddddddddkekek, PS)”, in the data set with IRF5 (KARPAS-229, 4 µM), the target mRNA inhibition was determined as 40%.
